Active and inactive are the calls of the source.
Assays:
Type in all cases: functional
[1] = biological target: cAMP-dependent protein kinase catalytic subunit alpha (Homo sapiens, UniProt P17612)
[2] = biological target: Cyclin-dependent kinase 7 (Homo sapiens, UniProt P50613);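 note: value comes from a kinome-wide kinase profiling panel in which CDK7 is one member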
[3] = biological target: Calcium/calmodulin-dependent protein kinase type II subunit alpha (Homo sapiens, UniProt Q9UQM7); test: Navigating the Kinome. Panel member name: CAMK2A
[4] = biological target: Vascular endothelial growth factor receptor 1 (Homo sapiens, UniProt P17948);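 note: measured within a kinome-wide profiling panel, FLT1 as the panel member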
[5] = biological target: Glycogen synthase kinase-3 beta (Homo sapiens, UniProt P49841);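 note: value comes from a broad kinome profiling panel, with GSK3B as the panel member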
Activated CDC42 kinase 1 = Activated CDC42 kinase 1 (Homo sapiens, UniProt Q07912); test: Navigating the Kinome. Panel member name: ACK1
Chain of Activated CDC42 kinase 1 (Q07912 whole entry): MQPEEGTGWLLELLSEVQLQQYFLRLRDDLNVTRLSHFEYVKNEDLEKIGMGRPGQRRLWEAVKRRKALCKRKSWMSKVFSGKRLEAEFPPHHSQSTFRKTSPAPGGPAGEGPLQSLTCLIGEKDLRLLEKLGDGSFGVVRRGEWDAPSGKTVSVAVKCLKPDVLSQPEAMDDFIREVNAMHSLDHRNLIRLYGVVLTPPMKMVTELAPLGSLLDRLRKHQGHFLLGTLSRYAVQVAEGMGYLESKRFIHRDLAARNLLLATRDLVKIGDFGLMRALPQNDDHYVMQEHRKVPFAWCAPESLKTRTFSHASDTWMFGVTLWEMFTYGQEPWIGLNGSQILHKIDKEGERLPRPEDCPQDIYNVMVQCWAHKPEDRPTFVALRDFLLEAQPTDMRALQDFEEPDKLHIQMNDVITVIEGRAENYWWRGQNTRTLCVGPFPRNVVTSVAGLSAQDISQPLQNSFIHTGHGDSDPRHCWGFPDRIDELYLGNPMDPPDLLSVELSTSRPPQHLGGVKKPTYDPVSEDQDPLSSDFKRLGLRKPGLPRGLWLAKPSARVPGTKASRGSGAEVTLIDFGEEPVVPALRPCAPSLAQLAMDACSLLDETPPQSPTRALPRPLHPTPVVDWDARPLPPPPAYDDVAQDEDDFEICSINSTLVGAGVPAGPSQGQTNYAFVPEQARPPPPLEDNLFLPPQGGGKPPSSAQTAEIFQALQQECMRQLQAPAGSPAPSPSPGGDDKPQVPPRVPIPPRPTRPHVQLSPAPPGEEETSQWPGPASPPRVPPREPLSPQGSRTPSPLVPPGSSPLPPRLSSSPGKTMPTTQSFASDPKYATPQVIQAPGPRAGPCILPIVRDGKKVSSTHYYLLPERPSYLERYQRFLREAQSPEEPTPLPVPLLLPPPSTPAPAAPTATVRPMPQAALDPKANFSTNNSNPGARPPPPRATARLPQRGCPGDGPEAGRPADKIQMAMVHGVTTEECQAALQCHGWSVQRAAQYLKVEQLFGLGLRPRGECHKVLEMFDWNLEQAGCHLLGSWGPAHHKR

[6] = biological target: Hepatocyte growth factor receptor (Homo sapiens, UniProt P08581);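 note: kinase panel profiling across the kinome, with MET as the panel member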
[7] = biological target: Dual specificity mitogen-activated protein kinase kinase 1 (Homo sapiens, UniProt Q02750); test: Navigating the Kinome. Panel member name: MAP2K1
[8] = biological target: Dual specificity mitogen-activated protein kinase kinase 2 (Homo sapiens, UniProt P36507); test: Navigating the Kinome. Panel member name: MAP2K2
[9] = biological target: Cyclin-dependent kinase 8 (Homo sapiens, UniProt P49336); test: Navigating the Kinome. Panel member name: CDK8
[10] = biological target: Serine/threonine-protein kinase Chk1 (Homo sapiens, UniProt O14757);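 note: measured as one member of a kinome-wide kinase profiling panel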
[11] = biological target: Tyrosine-protein kinase receptor TYRO3 (Homo sapiens, UniProt Q06418);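 note: TYRO3 value obtained as one member of a kinome-wide profiling panel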
[12] = biological target: Macrophage colony-stimulating factor 1 receptor (Homo sapiens, UniProt P07333);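 note: value comes from the Navigating the Kinome screening panel, CSF1R member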
[13] = biological target: Proto-oncogene tyrosine-protein kinase receptor Ret (Homo sapiens, UniProt P07949);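 note: measured within a kinome-wide profiling panel, RET as the panel member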
[14] = biological target: Serine/threonine-protein kinase TAO1 (Homo sapiens, UniProt Q7L7X3)
[15] = biological target: Dual specificity tyrosine-phosphorylation-regulated kinase 1A (Homo sapiens, UniProt Q13627);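 note: measured against DYRK1A as one member of a broad kinome profiling panel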
[16] = biological target: Platelet-derived growth factor receptor beta (Homo sapiens, UniProt P09619);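 note: value comes from a kinome panel, with PDGFRB tested as one panel member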
[17] = biological target: Tyrosine-protein kinase JAK3 (Homo sapiens, UniProt P52333)
[18] = biological target: Dual specificity tyrosine-phosphorylation-regulated kinase 1B (Homo sapiens, UniProt Q9Y463); test: Navigating the Kinome. Panel member name: DYRK1B
Aurora kinase A = Aurora kinase A (Homo sapiens, UniProt O14965);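 note: value from the Navigating the Kinome kinase panel profiling, panel entry STK6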
[19] = biological target: Serine/threonine-protein kinase pim-1 (Homo sapiens, UniProt P11309)
Chain of Serine/threonine-protein kinase pim-1 (P11309 whole entry): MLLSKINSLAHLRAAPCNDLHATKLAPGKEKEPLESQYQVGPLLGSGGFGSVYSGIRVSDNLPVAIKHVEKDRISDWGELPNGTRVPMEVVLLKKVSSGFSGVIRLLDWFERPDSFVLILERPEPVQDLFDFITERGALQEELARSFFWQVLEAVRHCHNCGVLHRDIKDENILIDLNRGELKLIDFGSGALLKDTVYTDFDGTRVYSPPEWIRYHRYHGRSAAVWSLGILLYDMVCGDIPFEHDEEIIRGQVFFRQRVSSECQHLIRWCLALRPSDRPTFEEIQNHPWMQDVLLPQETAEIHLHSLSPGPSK

[20] = biological target: Mitogen-activated protein kinase 8 (Homo sapiens, UniProt P45983);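 note: value comes from one member of a kinome-wide kinase profiling panel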
[21] = biological target: Receptor-type tyrosine-protein kinase FLT3 (Homo sapiens, UniProt P36888);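 note: FLT3 was tested as one member of a kinome-wide kinase panel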
[22] = biological target: 5'-AMP-activated protein kinase catalytic subunit alpha-1 (Homo sapiens, UniProt Q13131)
[23] = biological target: Fibroblast growth factor receptor 1 (Homo sapiens, UniProt P11362)
Chain of Fibroblast growth factor receptor 1 (P11362 whole entry): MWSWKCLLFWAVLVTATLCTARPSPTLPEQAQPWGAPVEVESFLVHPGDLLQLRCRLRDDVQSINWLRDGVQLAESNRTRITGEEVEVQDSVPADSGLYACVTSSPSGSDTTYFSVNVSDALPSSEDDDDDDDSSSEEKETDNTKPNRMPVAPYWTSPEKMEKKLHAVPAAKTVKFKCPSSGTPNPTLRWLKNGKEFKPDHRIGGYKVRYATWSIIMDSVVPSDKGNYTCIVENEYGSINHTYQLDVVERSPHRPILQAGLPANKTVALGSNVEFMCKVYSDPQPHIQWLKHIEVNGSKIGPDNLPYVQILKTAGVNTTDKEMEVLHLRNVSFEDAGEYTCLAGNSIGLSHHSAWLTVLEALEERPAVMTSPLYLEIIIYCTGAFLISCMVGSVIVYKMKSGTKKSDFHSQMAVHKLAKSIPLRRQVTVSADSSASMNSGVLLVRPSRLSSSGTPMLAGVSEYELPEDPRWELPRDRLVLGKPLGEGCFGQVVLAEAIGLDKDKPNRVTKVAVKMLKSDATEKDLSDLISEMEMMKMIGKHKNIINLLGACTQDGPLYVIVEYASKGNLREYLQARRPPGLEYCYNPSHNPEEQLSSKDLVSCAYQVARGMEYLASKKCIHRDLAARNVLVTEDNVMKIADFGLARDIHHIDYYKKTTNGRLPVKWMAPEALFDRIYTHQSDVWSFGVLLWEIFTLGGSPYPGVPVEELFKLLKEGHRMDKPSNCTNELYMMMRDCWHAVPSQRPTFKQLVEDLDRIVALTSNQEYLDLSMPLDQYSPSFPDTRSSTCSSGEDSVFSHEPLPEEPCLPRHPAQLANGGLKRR

[24] = biological target: Tyrosine-protein kinase JAK2 (Homo sapiens, UniProt O60674);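 note: JAK2 tested as one member of a kinase panel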
[25] = biological target: Cyclin-dependent kinase 9 (Homo sapiens, UniProt P50750);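 note: value from the CDK9 entry of a kinome-spanning kinase panel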
Chain of Cyclin-dependent kinase 9 (P50750 whole entry, the tested form may be a part): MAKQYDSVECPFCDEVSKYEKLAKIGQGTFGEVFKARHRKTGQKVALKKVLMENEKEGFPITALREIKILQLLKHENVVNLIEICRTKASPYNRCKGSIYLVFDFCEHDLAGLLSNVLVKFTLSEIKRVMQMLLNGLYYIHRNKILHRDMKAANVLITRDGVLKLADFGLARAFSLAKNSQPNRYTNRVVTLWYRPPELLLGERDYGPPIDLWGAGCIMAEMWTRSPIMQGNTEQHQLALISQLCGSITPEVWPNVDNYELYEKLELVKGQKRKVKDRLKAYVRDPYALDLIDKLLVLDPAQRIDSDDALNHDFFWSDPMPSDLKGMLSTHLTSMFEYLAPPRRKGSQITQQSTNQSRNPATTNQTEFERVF

LIM domain kinase 1 = LIM domain kinase 1 (Homo sapiens, UniProt P53667); test: Navigating the Kinome. Panel member name: LIMK1
[26] = biological target: ALK tyrosine kinase receptor (Homo sapiens, UniProt Q9UM73);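 note: ALK tested as one member of a kinase panel screen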
Chain of ALK tyrosine kinase receptor (Q9UM73 whole entry): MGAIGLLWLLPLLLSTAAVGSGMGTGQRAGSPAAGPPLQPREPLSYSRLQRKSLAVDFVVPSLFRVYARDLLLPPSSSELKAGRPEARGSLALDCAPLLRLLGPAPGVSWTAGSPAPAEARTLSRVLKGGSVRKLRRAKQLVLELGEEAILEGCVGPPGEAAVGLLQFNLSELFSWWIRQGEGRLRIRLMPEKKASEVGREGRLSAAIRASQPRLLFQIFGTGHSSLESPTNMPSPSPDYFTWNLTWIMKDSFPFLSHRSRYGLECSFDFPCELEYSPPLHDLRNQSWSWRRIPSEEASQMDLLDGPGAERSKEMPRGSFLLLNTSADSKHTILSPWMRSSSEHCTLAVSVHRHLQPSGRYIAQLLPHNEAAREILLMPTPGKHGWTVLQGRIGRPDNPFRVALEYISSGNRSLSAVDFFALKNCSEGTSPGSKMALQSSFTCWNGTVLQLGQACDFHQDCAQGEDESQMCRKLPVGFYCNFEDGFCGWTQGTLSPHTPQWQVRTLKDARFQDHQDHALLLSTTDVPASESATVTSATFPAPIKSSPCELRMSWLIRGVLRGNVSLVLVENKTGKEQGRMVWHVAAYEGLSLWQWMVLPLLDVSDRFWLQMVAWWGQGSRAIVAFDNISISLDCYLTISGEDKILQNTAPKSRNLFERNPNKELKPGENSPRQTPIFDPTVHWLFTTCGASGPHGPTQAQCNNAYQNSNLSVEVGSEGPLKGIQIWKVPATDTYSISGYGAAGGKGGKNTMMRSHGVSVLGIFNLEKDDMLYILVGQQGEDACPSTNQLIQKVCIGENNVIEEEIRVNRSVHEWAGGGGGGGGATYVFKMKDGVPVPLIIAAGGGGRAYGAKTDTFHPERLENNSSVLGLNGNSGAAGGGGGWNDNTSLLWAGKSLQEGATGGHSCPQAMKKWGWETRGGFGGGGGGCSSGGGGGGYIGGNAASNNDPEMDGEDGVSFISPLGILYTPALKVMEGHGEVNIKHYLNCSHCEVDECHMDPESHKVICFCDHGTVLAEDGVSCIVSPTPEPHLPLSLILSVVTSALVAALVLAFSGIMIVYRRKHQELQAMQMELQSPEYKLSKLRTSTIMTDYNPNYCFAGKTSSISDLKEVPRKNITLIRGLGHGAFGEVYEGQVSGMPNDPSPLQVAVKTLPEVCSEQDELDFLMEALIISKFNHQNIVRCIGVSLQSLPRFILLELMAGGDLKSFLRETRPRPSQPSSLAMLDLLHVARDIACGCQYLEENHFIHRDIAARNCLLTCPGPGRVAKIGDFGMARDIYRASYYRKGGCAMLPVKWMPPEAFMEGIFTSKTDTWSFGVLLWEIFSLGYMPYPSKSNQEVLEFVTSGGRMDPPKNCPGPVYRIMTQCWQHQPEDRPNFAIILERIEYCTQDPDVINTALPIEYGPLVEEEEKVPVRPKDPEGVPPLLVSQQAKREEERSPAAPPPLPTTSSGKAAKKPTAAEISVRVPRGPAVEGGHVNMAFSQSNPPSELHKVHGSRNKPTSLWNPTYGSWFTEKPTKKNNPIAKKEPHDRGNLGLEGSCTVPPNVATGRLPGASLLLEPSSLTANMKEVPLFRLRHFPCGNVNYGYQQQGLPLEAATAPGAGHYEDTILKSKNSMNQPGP

Focal adhesion kinase 1 = Focal adhesion kinase 1 (Homo sapiens, UniProt Q05397);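 note: measured as one member of a kinome panel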
[27] = biological target: Leukocyte tyrosine kinase receptor (Homo sapiens, UniProt P29376); test: Navigating the Kinome. Panel member name: LTK
Chain of Leukocyte tyrosine kinase receptor (P29376 whole entry): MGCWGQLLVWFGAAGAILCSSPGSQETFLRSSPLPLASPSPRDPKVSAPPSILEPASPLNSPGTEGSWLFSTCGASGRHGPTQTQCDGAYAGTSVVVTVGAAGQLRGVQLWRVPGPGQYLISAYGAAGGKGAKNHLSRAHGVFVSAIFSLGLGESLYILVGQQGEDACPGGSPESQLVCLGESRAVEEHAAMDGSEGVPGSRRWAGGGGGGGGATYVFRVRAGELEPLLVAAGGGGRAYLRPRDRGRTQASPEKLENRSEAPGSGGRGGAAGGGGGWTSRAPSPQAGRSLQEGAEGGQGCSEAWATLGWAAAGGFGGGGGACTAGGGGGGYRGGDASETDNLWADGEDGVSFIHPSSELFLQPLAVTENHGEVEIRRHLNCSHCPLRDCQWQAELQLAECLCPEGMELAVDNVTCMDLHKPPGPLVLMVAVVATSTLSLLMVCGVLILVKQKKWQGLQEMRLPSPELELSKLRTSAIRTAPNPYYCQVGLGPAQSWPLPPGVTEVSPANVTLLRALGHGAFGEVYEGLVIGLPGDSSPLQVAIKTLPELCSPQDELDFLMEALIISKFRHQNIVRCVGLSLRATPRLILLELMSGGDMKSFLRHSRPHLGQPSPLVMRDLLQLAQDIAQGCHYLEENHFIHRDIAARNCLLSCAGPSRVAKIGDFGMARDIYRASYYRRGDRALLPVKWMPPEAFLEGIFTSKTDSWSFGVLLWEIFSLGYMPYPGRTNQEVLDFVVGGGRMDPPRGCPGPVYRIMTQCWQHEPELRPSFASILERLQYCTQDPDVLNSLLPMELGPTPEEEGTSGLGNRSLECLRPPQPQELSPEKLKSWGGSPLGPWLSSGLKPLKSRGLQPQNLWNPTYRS

[28] = biological target: Macrophage-stimulating protein receptor (Homo sapiens, UniProt Q04912); test: Navigating the Kinome. Panel member name: MST1R
[29] = biological target: Dual specificity protein kinase CLK4 (Homo sapiens, UniProt Q9HAZ1)

Measured: Ki

CC(=O)Nc1ccc(-n2nc3ccc(N)nc3n2)cc1
active: [1] 1.26 µM | [2] 2.51 µM | [3] 1.26 µM | [4] 2.51 µM | [5] 1.26 µM | Activated CDC42 kinase 1 1 µM | [6] 1 µM | [7] 2.51 µM | [8] 1.58 µM | [9] 2.51 µM | [10] 0.794 µM | [11] 1.26 µM | [12] 2 µM | [13] 1.58 µM | [14] 5.01 µM | [15] 1 µM | [16] 2 µM | [17] 2 µM | [18] 1.26 µM | Aurora kinase A 1.58 µM | [19] 3.98 µM | [20] 2.51 µM | [21] 2 µM | [22] 1.26 µM | [23] 1.26 µM | [24] 2 µM | [25] 1 µM | LIM domain kinase 1 1.26 µM | [26] 2 µM | Focal adhesion kinase 1 5.01 µM | [27] 0.794 µM | [28] 2.51 µM | [29] 0.794 µM
